Our source for the Activity and MIC values is ChEMBL document CHEMBL1150784, “Multicopy blaOXA-58 gene as a source of high-level resistance to carbapenems in Acinetobacter baumannii” (2007).

Experiment [1] has as its target Beta-lactamase OXA-58 (Acinetobacter baumannii) (UniProt Q2TR58). In words: Activity of Acinetobacter baumannii […] OXA58 assessed as hydrolytic specific activity per mg of protein.
In experiment [2] the test system is Acinetobacter baumannii. Nature of the experiment: Antimicrobial activity against carbapenem-resistant Acinetobacter baumannii T186 isolate carrying three bla-OXA58 gene copies by agar dilution method. The class given is functional. A general note: Agar dilution tests growth on a series of plates holding different concentrations.
In experiment [3] the target is Beta-lactamase OXA-58 (Acinetobacter baumannii) (UniProt Q2TR58). In words: Activity of OXA58 from Acinetobacter baumannii 183 isolate carrying one bla-OXA58 gene copy assessed as hydrolytic specific activity per mg of protein.
Beta-lactamase OXA-58 (Acinetobacter baumannii), sequence (Q2TR58 whole entry): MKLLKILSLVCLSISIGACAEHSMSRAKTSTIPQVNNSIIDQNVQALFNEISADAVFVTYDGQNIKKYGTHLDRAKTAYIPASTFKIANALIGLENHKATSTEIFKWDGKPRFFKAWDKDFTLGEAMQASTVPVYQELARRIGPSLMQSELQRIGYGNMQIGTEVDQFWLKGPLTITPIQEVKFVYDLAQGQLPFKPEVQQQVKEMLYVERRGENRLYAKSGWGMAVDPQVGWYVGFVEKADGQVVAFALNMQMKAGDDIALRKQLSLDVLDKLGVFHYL
For experiment [4], the system named is Acinetobacter baumannii. In words: Antimicrobial activity against carbapenem-resistant Acinetobacter baumannii BM4547 by agar dilution method. The class given is functional.
Experiment [5] has as its target Beta-lactamase OXA-58 (Acinetobacter baumannii) (UniProt Q2TR58). Nature of the experiment: Activity of OXA58 from Acinetobacter baumannii 193 isolate carrying two bla-OXA58 gene copy assessed as hydrolytic specific activity per mg of protein.
In experiment [6] the test system is Acinetobacter baumannii. Nature of the experiment: Antimicrobial activity against carbapenem-resistant Acinetobacter baumannii T193 isolate carrying two bla-OXA58 gene copies by agar dilution method. Type of experiment: functional.
In experiment [7] the test system is Acinetobacter baumannii. In words: Antimicrobial activity against carbapenem-resistant Acinetobacter baumannii T183 isolate carrying one bla-OXA58 gene copy by agar dilution method. Type of experiment: functional.
Experiment [8] has as its target Beta-lactamase OXA-58 (Acinetobacter baumannii) (UniProt Q2TR58). Nature of the experiment: Activity of OXA58 from Acinetobacter baumannii T186 isolate carrying three bla-OXA58 gene copy assessed as hydrolytic specific activity per mg of protein.
The target is the same in experiment [9]. In words: Activity of OXA58 from Acinetobacter baumannii T193 isolate carrying two bla-OXA58 gene copy assessed as hydrolytic specific activity per mg of protein.
Experiment [10] has as its system Acinetobacter baumannii. Nature of the experiment: Antimicrobial activity against carbapenem-resistant Acinetobacter baumannii 193 isolate carrying two bla-OXA58 gene copies by agar dilution method. Type of experiment: functional.
Experiment [11] addresses Beta-lactamase OXA-58 (Acinetobacter baumannii) (UniProt Q2TR58). In words: Activity of OXA58 from Acinetobacter baumannii 186 isolate carrying three bla-OXA58 gene copy assessed as hydrolytic specific activity per mg of protein.
Experiment [12] shares this target. Nature of the experiment: Activity of OXA58 from Acinetobacter baumannii T183 isolate carrying one bla-OXA58 gene copy assessed as hydrolytic specific activity per mg of protein.
Experiment [13] relates to Klebsiella pneumoniae. In words: Antimicrobial activity against Klebsiella pneumoniae isolate expressing VIM1 gene. The class given is functional.
In experiment [14] the test system is Acinetobacter baumannii. In words: Antimicrobial activity against carbapenem-resistant Acinetobacter baumannii 183 isolate carrying one bla-OXA58 gene copy by agar dilution method. The class given is functional.
Experiment [15] relates to Acinetobacter baumannii. In words: Antimicrobial activity against carbapenem-resistant Acinetobacter baumannii 186 isolate carrying three bla-OXA58 gene copies by agar dilution method. Type of experiment: functional.

The MIC is the lowest concentration that inhibits growth of the organism. A higher MIC goes with a need for much substance.

Each structure is given as a SMILES string. Values after ≈ are worked out from the molar mass of the structure shown.

`CC(C)(O/N=C(\C(=O)N[C@@H]1C(=O)N2C(C(=O)[O-])=C(C[n+]3ccccc3)CS[C@H]12)c1csc(N)n1)C(=O)O` [CEFTAZIDIME]: the Activity in [1] is below 0.01 U/mg; in experiment [3], 0.075 U/mg; in [5] it was 0.077 U/mg. The MIC in [2] was found to be 8 mg/L (≈ 14.6 µM); in [4] it was 4 mg/L (≈ 7.32 µM); in experiment [6] it was 8 mg/L (≈ 14.6 µM); in experiment [7], 8 mg/L (≈ 14.6 µM).

With `C[C@@H](O)[C@H]1C(=O)N2C(C(=O)O)=C(SCCNC=N)C[C@H]12` [IMIPENEM ANHYDROUS], the Activity was below 0.01 U/mg in experiment [1]; 0.388 U/mg in experiment [8]; 0.165 U/mg in experiment [3]; 0.365 U/mg in experiment [9]; 0.27 U/mg in experiment [11]; 0.303 U/mg in [12]. The Activity in experiment [5] was 0.227 U/mg. For the same compound, the MIC in experiment [2] was 64 mg/L (≈ 214 µM); in experiment [4], 0.5 mg/L (≈ 1.67 µM); in experiment [10], 32 mg/L (≈ 107 µM); in experiment [6], 16 mg/L (≈ 53.4 µM); in experiment [13], 2 mg/L (≈ 6.68 µM); in [7], 6 mg/L (≈ 20 µM). In addition, in experiment [14], the MIC is 16 mg/L (≈ 53.4 µM).

Take `C[C@@H](O)[C@H]1C(=O)N2C(C(=O)O)=C(S[C@@H]3CN[C@H](C(=O)N(C)C)C3)[C@H](C)[C@H]12` [MEROPENEM]: the MIC was 8 mg/L (≈ 20.9 µM) in [2]; 0.5 mg/L (≈ 1.3 µM) in experiment [4]; 8 mg/L (≈ 20.9 µM) in [10]; 4 mg/L (≈ 10.4 µM) in experiment [6]; 3 mg/L (≈ 7.82 µM) in experiment [7]; 12 mg/L (≈ 31.3 µM) in [15]. The compound further yielded an MIC in experiment [14] of 4 mg/L (≈ 10.4 µM).
